Literature values as cited in PubChem BioAssay AID1259409 (Chemical Carcinogenesis Research Information System (CCRIS), 2018).

Test system: rodent chemically induced tumor inhibition, incidence and multiplicity
Experiment: CCRIS tumor inhibitor studies
Conditions: Route [Inhibitor]: ORAL, Promoter: NONE USED
From the text: The CCRIS database contains chemical records with carcinogenicity, mutagenicity, tumor promotion, and tumor inhibition test results. It was developed by the National Cancer Institute (NCI). Data are derived from studies cited in primary journals, current awareness tools, NCI reports, and other sources. Test results have been reviewed by experts in carcinogenesis and mutagenesis.
CCRIS provides historical information from the years 1985 - 2011. It is no longer updated.
This is an archive assay for CCRIS tumor inhibitor studies.

## COc1ccc(-c2cc(=S)ss2)cc1
Carcinogen: 7,12-DIMETHYLBENZ[A]ANTHRACENE, 57-97-6, Dose [Inhibitor]: 0, 200 PPM IN DIET FOR DURATION OF STUDY BEGINNING 1 WK PRIOR TO CARCINOGEN DOSE (STUDY DURATION: 107 D), Species: RAT, Strain/Sex: SPRAGUE-DAWLEY/FEMALE, Target Tissue: Type of Lesion: MAMMARY GLAND: ADENOCARCINOMA, Dose [Carcinogen]: 12 MG ONCE
  tumour outcome (control, treated, inhibition, significance): 80%, 75%, 6%, not significant
Carcinogen: 7,12-DIMETHYLBENZ[A]ANTHRACENE, 57-97-6, Dose [Inhibitor]: 0, 400 PPM IN DIET FOR DURATION OF STUDY BEGINNING 1 WK PRIOR TO CARCINOGEN DOSE (STUDY DURATION: 107 D), Species: RAT, Strain/Sex: SPRAGUE-DAWLEY/FEMALE, Target Tissue: Type of Lesion: MAMMARY GLAND: ADENOCARCINOMA, Dose [Carcinogen]: 12 MG ONCE
  tumour outcome (control, treated, inhibition, significance): 80%, 85%, -6%, not significant
Carcinogen: AZOXYMETHANE, 25843-45-2, Dose [Inhibitor]: 0, 100 PPM IN DIET BEGINNING 2 WK PRIOR TO CARCINOGEN TREATMENT AND CONTINUING FOR DURATION OF STUDY (STUDY DURATION: 56, Species: RAT, Strain/Sex: F344/MALE, Target Tissue: Type of Lesion: COLON: INVASIVE ADENOCARCINOMA, Dose [Carcinogen]: 15 MG/KG 1/WK FOR 2 WK
  tumour outcome (control, treated, inhibition, significance): 34%, 11%, 68%, p<0.05
Carcinogen: AZOXYMETHANE, 25843-45-2, Dose [Inhibitor]: 0, 100 PPM IN DIET BEGINNING 2 WK PRIOR TO CARCINOGEN TREATMENT AND CONTINUING FOR DURATION OF STUDY (STUDY DURATION: 56, Species: RAT, Strain/Sex: F344/MALE, Target Tissue: Type of Lesion: COLON: NONINVASIVE ADENOCARCINOMA, Dose [Carcinogen]: 15 MG/KG 1/WK FOR 2 WK
  tumour outcome (control, treated, inhibition, significance): 53%, 47%, 11%, not significant
Carcinogen: AZOXYMETHANE, 25843-45-2, Dose [Inhibitor]: 0, 200 PPM IN DIET BEGINNING 2 WK PRIOR TO CARCINOGEN TREATMENT AND CONTINUING FOR DURATION OF STUDY (STUDY DURATION: 56, Species: RAT, Strain/Sex: F344/MALE, Target Tissue: Type of Lesion: COLON: INVASIVE ADENOCARCINOMA, Dose [Carcinogen]: 15 MG/KG 1/WK FOR 2 WK
  tumour outcome (control, treated, inhibition, significance): 34%, 8%, 76%, p<0.01
Carcinogen: AZOXYMETHANE, 25843-45-2, Dose [Inhibitor]: 0, 200 PPM IN DIET BEGINNING 2 WK PRIOR TO CARCINOGEN TREATMENT AND CONTINUING FOR DURATION OF STUDY (STUDY DURATION: 56, Species: RAT, Strain/Sex: F344/MALE, Target Tissue: Type of Lesion: COLON: NONINVASIVE ADENOCARCINOMA, Dose [Carcinogen]: 15 MG/KG 1/WK FOR 2 WK
  tumour outcome (control, treated, inhibition, significance): 53%, 30%, 43%, p<0.05

## CCCCC[Se]C#N
Carcinogen: 7,12-DIMETHYLBENZ[A]ANTHRACENE, 57-97-6, Dose [Inhibitor]: 0.1, 2 PPM (SELENIUM) IN DIET FOR 3 WK BEGINNING 2 WK PRIOR TO CARCINOGEN DOSE (STUDY DURATION: 25 WK), Species: RAT, Strain/Sex: SPRAGUE-DAWLEY/FEMALE, Target Tissue: Type of Lesion: MAMMARY GLAND: TUMOR, Dose [Carcinogen]: 10 MG ONCE
  tumour outcome (control, treated, inhibition, significance): 25/30 (83%), 11/30 (37%), 55%, p<0.05

## CC(C)(C)c1cc(C(C)(C)C)c(O)cc1O
Carcinogen: BENZO[A]PYRENE, 50-32-8, Dose [Inhibitor]: 0.03 MMOL/G OF DIET DAILY STARTING 7 D BEFORE AND CONTINUING THROUGH 3 D AFTER CARCINOGEN TREATMENT FOLLOWED BY OBSERVAT, Species: MOUSE, Strain/Sex: ICR/FEMALE, Target Tissue: Type of Lesion: FORESTOMACH: NEOPLASM, Dose [Carcinogen]: 1 MG IN 0.2 ML CORN OIL 2/WK FOR 4 WK
  tumour outcome (control, treated, inhibition, significance): 94%, 100%, -6%, not significant
